Assays:
PC12 (TrkA & p75) [1] = tested on: T1, PC12 (TrkA & p75); test: 125I-NGF binding displacement in PC12 cells; parameters: species or system rat; conditions: PC12 cells expressing TrkA and p75; individual experiment
T1 construct: other: Concentration 25 μM; PC12 cells; other: Concentration 50 μM; other: PC12 cells; 125I-NGF ~0.11 nM; other: PC12 cells expressing TrkA and p75; individual experiment; fused on or other part: 125I label on NGF
Method: (§1) All cells were incubated at 37° C. in 5% CO2. PC12 cells were maintained in RPMI-1640 medium supplemented with 10% fetal bovine serum (FBS). A875 human melanoma cells were maintained in DMEM with 10% FBS. HEK 293 cells were stably transfected with human TrkA plasmid (see below) and maintained in DMEM with 10% FBS and G418 (600 μg/mL) for selection.
(§2) NGF binding was evaluated using methods familiar to those who are skilled in the art. Briefly, cells expressing one or both NGF receptors (PC12: TrkA+p75; A875: p75 alone; HEK_TrkA: TrkA alone) were harvested by replacing the medium with calcium-magnesium free balanced salt (Grey's) solution and incubating at 37° C. for 15 min. For NGF binding, cells were resuspended at a concentration of 2×10^6 cells/mL in HEPES-Krebs-Ringer (HKR) buffer (10 mM HEPES; 125 mM NaCl; 4.8 mM KCl; 1.3 mM CaCl2; 1.2 mM MgSO4; 1.2 mM KH2PO4; 1 mg/ml BSA; 1 mg/ml glucose; pH 7.4) and exposed to ^125I-NGF (˜0.11 nM) in the presence or absence of varying concentrations of the compound. Non-specific binding was determined for reference by incubating ^125I-NGF with an excess of non-radioactive NGF in the absence of compound. Following a two-hour incubation period at 4° C., ^125I-NGF bound to the cells was quantified in a gamma radiation counter following separation from unbound NGF by filtration or centrifugation through glycerol (10% in HKR). Inhibition of binding was calculated as a percent of the specific binding (calculated as the differential between ^125I-NGF binding in the absence and presence of an excess of non-radioactive NGF without compound). Dose-response inhibition curves were typically generated with seven concentrations of a given compound, with three replicates for each concentration. For most compounds, multiple dose-response curves were generated.

PC12 (TrkA & p75) [2] = tested on: T2, PC12 (TrkA & p75); test: 125I-NGF binding displacement in PC12 cells; parameters: species or system rat; conditions: PC12, A875 and HEK_TrkA cells taken together
T2 construct: other: PC12, A875 an; fused on or other part: 125I label on NGF
Method: as §1, §2

A875: p75 alone = test: 125I-NGF binding displacement in A875 cells; parameters: species or system human; conditions: A875 cells expressing p75; individual experiment
Method: as §1, §2

[3] = tested on: HEK_TrkA: TrkA alone (human TrkA); test: 125I-NGF binding displacement in HEK_TrkA cells; conditions: individual experiment
Method: as §1
Expression of human TrkA in HEK cells was achieved by transfecting the cells with the TrkA expression vector using Lipofectamine (Invitrogen) reagent. HEK cells were plated in 100 mm Petri dishes at a concentration of 10^6 cells per dish. The next day, a solution of DNA diluted in 1 mL OptiMEM (Invitrogen) per dish was prepared and incubated for 15 min at room temperature. […]
NGF binding was evaluated using methods familiar to those who are skilled in the art. […] Non-specific binding was determined for reference by incubating ^125I-NGF with an excess of non-radioactive NGF in the absence of compound. Following a two-hour incubation period at 4° C., ^125I-NGF bound to the cells was quantified in a gamma radiation counter following separation from unbound NGF by filtration or centrifugation through glycerol (10% in HKR). Inhibition of binding was calculated as a percent of the specific binding (calculated as the differential between ^125I-NGF binding in the absence and presence of an excess of non-radioactive NGF without compound). […]

[4] = tested on: NGF-induced Erk 1/2 phosphorylation in PC12 cells; test: Erk phosphorylation in NGF-stimulated PC12 cells (Western blot); assay type: cell-based, rat; conditions: 5 ng/mL NGF
Method: This assay is useful for establishing that the compounds of the invention are functional NGF antagonists, not receptor agonists (an agonist could conceivably block NGF binding but actually activate the receptor). Erk 1/2 is a kinase activated down stream of TrkA and is a well studied member of the NGF-induced signal transduction cascade.
PC12 cells expressing TrkA and p75 were acutely exposed to 5 ng/mL NGF (15 min; 37° C.; 5% CO2) that was pre-incubated (30 min; room temperature) with or without the compounds. Cells were lysed in Laemmli sample buffer (for SDS-PAGE) or a lysis buffer containing Triton X-100 (for ELISA). Following SDS-PAGE, proteins were electroblotted onto nitrocellulose and immunoprobed for phosphorylated Erk 1 and 2. Blocking and primary antibody incubations of immunoblots were performed in Tris-buffered saline-Tween (10 mM Tris, pH 8.0, 150 mM NaCl, and 0.2% Tween 20) supplemented with 5% (w/v) bovine serum albumin (BSA); secondary antibody incubations were performed in 5% (w/v) dried skim milk powder. Immunoreactive bands were detected by chemiluminescence.

Mice = test: Writhing Test (acetic acid abdominal contraction test); assay type: in vivo, mouse
Method: The acetic acid abdominal contraction test (Martinez et al., Pain 1999; 81: 179) was used to determine the efficacy of different compounds in a model of acute visceral chemical nociception. […] Compound or vehicle was administered (i.p. or s.c.) 15-45 minutes prior to the acetic acid injection. Each episode of writhing is characterized by a lengthwise stretching of the torso with a concomitant arching of the back.
Statistical analysis was performed using Prism™ 4.01 software package (GraphPad, San Diego, Calif., USA). The difference in response levels between treatment groups and control vehicle group was analyzed using an ANOVA followed by Bonferroni's method for post-hoc pair-wise comparisons. A p value <0.05 was considered to be significant.

CC(=O)Nc1cc2c3c(cc(NC(C)=O)cc3c1)C(=O)N(CCCC(=O)O)C2=O [Compound 11, 4-(5,8-Bis-acetylamino-1,3-dioxo-1H,3H-benzo[de]isoquinolin-2-yl)-butyric acid]
NGF binding displacement, dose-response curve (PC12 (TrkA & p75) [1]): effectively blocks NGF binding to cells expressing TrkA and p75
Block of NGF binding to TrkA and/or p75 (summary of FIGS. 1B, 2A, 2B, 4A, 4B, 6A, 6B, 7A, 8A, 8B) (PC12 (TrkA & p75) [2]): effectively block NGF binding to TrkA and/or p75
NGF binding displacement, dose-response curve (A875: p75 alone): effectively blocks NGF binding to cells expressing p75
NGF binding displacement, dose-response curve [3]: effectively blocks NGF binding to TrkA
Inhibition of NGF-induced Erk 1/2 phosphorylation [4]: inhibits NGF-induced Erk 1/2 phosphorylation in PC12 cells
Number of abdominal contractions (writhing) (Mice; 15 mg/kg i.p., 30 minutes following acetic acid, vehicle 54±6): 28±4
Antinociceptive effect in the Writhing Test (Mice; Compound 63 100 mg/kg i.p., Compound 11 15 mg/kg i.p., 10-20 minutes before acetic acid): significant antinociceptive effects

Source: patent publication US7579468B2, “Methods of modulating neurotrophin-mediated activity” (PainCeptor Pharma Corporation, priority 2005, dated 2009)
